Laboratory results reported in ChEMBL document CHEMBL6103579, “Antiproliferative activity of selenium-enriched coumarin derivatives on the SK-N-SH neuroblastoma cell line: Mechanistic insights” (Eur J Med Chem, 2025).
The source made the active and inactive calls. The rule behind the calls is not given here.

Assays:
[1] = Toxicity in female ICR mouse assessed as change in organ coefficient of kidney at 20 mg/kg, ip […] (reference value: 0.007); assay type: organism-based; details: in vivo
[2] = Toxicity in female ICR mouse assessed as change in organ coefficient of lung at 20 mg/kg, ip […] (reference value: 0.007+/-0.001); assay type: organism-based; details: in vivo
[3] = Toxicity in female ICR mouse assessed as change in organ coefficient of spleen at 20 mg/kg, ip […] (reference value: 0.006+/-0.002); assay type: organism-based; details: in vivo
N2a [4] = test: Antitumor activity against mouse N2a cells implanted in female ICR mouse model assessed as change in body weight at 20 mg/kg, ip measured upto 8 days (reference value: 25.54 +/-2.19 g); assay type: functional; details: time <= 8 day
N2a [5] = test: Antitumor activity against mouse N2a cells implanted in female ICR mouse model assessed as tumor inhibition rate at 20 mg/kg, ip measured upto 8 days relative to control; assay type: functional; design: scale not given: the % may be the effect or the level left; details: time <= 8 day
N2a [6] = test: Antitumor activity against mouse N2a cells implanted in female ICR mouse model assessed as reduction in tumor weight at 20 mg/kg, ip measured upto 8 days (reference value: 0.9 +/-0.26 g); assay type: functional; details: time <= 8 day
[7] = Toxicity in female ICR mouse assessed as change in organ coefficient of liver at 20 mg/kg, ip […] (reference value: 0.058+/-0.010); assay type: organism-based; details: in vivo
[8] = Toxicity in female ICR mouse assessed as change in organ coefficient of heart at 20 mg/kg, ip […] (reference value: 0.006+/-0.002); assay type: organism-based; details: in vivo
[9] = Antiproliferative activity against human Embryonic lung cell assessed as inhibition of cell growth incubated for 60 hrs by CCK-8 method; assay type: toxicity, cell-based
Neuroblastoma cell = test: Antiproliferative activity against human Neuroblastoma cell assessed as inhibition of cell growth incubated for 60 hrs by CCK-8 method; assay type: functional, cell-based

SMILES	Activity [1]	Activity [2]	Activity [3]	Activity (N2a [4]) [g]	Activity (N2a [5]) [%]	Activity (N2a [6]) [g]	Activity [7]	Activity [8]	Activity [9]	Activity (Neuroblastoma cell)
O=P1(N(CCCl)CCCl)NCCCO1 (stereo not given) [CYCLOPHOSPHAMIDE ANHYDROUS]	0.007	0.007	0.004	27.2	64.6	0.32	0.059	0.006		
COc1ccc(C2CC(c3ccc(F)cc3)=NN2C(=O)c2cc3ccc(OCCC[Se]C#N)cc3oc2=O)cc1 (stereo not given)									Non-toxic	Active
